Type in all cases: functional
The subject of test [1] is Rattus norvegicus. The test can be described thus: Effect on mean arterial blood pressure in SHR rat at the dose of 10 mg/kg i.v. The note with it: route intravenous.
Test [2] deals with Rattus norvegicus. The experiment in a line: Effect on mean arterial blood pressure in SHR rat at the dose of 0.3 mg/kg i.v. The conditions noted are these: route intravenous.
The species named for test [3] is Oryctolagus cuniculus. The test can be described thus: Compound did not aggregate rabbit platelet at concentration of 1.8E-5 M.

As to `CCCCCCCCCCCCCCCCOCC(CCS(=O)(=O)CCC[N+](C)(C)C)OC(C)=O.[Cl-]` (stereo not drawn), in test [1], the Blood pressure amounted to 20 mmHg. As to `CCCCCCCCCCCCCCCCOCC(COP(=O)([O-])OCC[N+](C)(C)C)OC(C)=O` (stereo not drawn) [PLATELET ACTIVATING FACTOR], the Blood pressure in test [2] is 20 mmHg. Further, the Activity result in test [3] was “Did not aggregate rabbit platelet at concentration of 1.8E-5 M”.

The values above are taken from ChEMBL document CHEMBL1123053, “Analogues of platelet activating factor. 3. Replacement of the phosphate moiety with a sulfonylbismethylene group” (1985).
